{
  "source": "patent US20140343249A1",
  "about": "“CELL KILLING FUSION PEPTIDE EXHIBITING TUMOR CELL-SPECIFIC NECROSIS INDUCTION AND TUMOR REGRESSION” (INDUSTRY-ACADEMIC COOPERATION FOUNDATION, CHOSUN UNIVERSITY, priority 2011, published 2014)",
  "key": {"[1]": {"experiment": "Movement activity of mouse after I.V. injection", "assay_type": "in vivo", "settings": "10-30 min after I.V. injection of 75 ul (1 mM) into BalB/C mouse (about 20 g)"}, "[2]": {"system": "CT-26 tumor", "experiment": "In vivo screening of tumor regression activity, CT-26 tumor in BALB/C mice", "parameters": "key to In vivo Screening: NR: no regression (no decrease on the tumor volume); ND: not determined", "settings": "for In vivo Screening: CT-26 tumor-bearing BALB/C mice, intravenous injection; for toxicity to the experimental animals: 100 ul (1 mM) intravenously 2-3 times (1 injection/day)", "description": "In order to test tumor regression activity of the cell-killing CKP fusion peptides manufactured in Example 1, colon cell line, CT-26 (1.5×10^5 cells) was subcutaneously injected into dorsal skin of BALB/C mice of 6 weeks old to form tumor. After about 10 days, when the formed tumor volume reach to about 70±10 mm^3, the cancer cell specific CKP fusion peptide 100 ul (1 mM) was intravenously injected continuously 2-3 times (1 injection/day) into 3 mice, respectively, and after 10-13 days, change on the tumor tissue volume (length×wide^2×0.5) was observed."}, "[3]": {"system": "HeLa cells, cervical cancer cell line", "experiment": "Cell-killing activity of CKP peptide variants in HeLa, crystal violet staining", "assay_type": "cell-based, human", "settings": "0-40 μM, 24 hours, peptides linked to PTD RRRRRRRRG", "excerpt": "In order to examine whether variants, in which some amino acids of the CKP peptide (SEQ ID NO: 21; KLLNLISKLF) of the present invention are substituted, also have cell-killing activity or not, CKP2 (1 amino acid was substituted) (SEQ ID NO: 22; KALNLISKLF), CKP3 (2 amino acids were substituted) (SEQ ID NO: 23; KLAALISKLF), CKP4 (2 amino acids were substituted) (SEQ ID NO: 24; KLLNLIAALF) and CKP5 (3 amino acids were substituted) (SEQ ID NO: 25; KALNLIAALF), which are CKP peptide variants in which 1-3 of amino acid residues linked to the known protein transduction domain (PTD) having RRRRRRRRG (RQ) sequence are substituted, were synthesized by the procedure described in Example 1. Further, in order to investigate influence of substitution at the leucine's repeat in the CKP, the CKP peptide variants, CKP6 (2nd and 3rd L were substituted to A) (SEQ ID NO: 26; KAANLISKLF), CKP7 (5th L was substituted to A) (SEQ ID NO: 27; KLLNAISKLF) and CKP8 (9th L was substituted to A) (SEQ ID NO: 28; KLLNLISKAF) linked to the RRRRRRRRG (RQ) sequence of the protein transduction domain (PTD) were synthesized by the procedure described in Example 1. In order to test cell-killing activity of the variants, a cervical cancer cell line, HeLa cells were cultured, and the culture medium was replaced with culture medium containing 0, 1, 5, 10, 15, 20, 30 and 40 μM CKP peptide, respectively, followed by further culturing for 24 hours. Living cells attached to the bottom were stained with 100 μl 0.5% crystal violet solution for 10 min, and washed off with distilled water or tap water to remove dead cells floating on the culture medium and also to destain the crystal violet solution. Then, the cells were observed by photography after placing the culture vessel under a fluorescent lamp box as depicted in FIG. 14. The living cells attached to the bottom and stained with the crystal violet were appeared blue color. […] Accordingly, it was identified that the Leucine sequence is a region playing a critical role in cell-killing activity of the CKP."}, "[4]": {"system": "cells", "settings": "in 10 minutes; cited from earlier work"}, "[5]": {"experiment": "Hepatocyte toxicity: ALT and AST released to blood", "assay_type": "in vivo, mouse", "settings": "blood of treated groups by the time versus untreated control group", "description": "In order to confirm toxicity of the cell-killing CKP fusion peptide (CTD7:CKP), the amounts of alanine amino transferase (ALT) and aspartate amino transferase (AST) released to blood from hepatocytes of the damaged liver were measured and whether the hepatocytes was damaged or not was confirmed, so as to judge toxicity by the cell-killing CKP fusion peptide."}, "[6]": {"system": "splenocytes", "experiment": "Normal cell necrosis activity in splenocytes by XTT method", "assay_type": "cell-based, mouse", "settings": "splenocytes from BALB/c mice, 5, 10 and 20 μM, after 15 min", "excerpt": "In order to test cell necrosis inducing activity of the cell-killing CKP fusion peptide (CTD7:CKP) selected in Example 3 in normal cells, primary peritoneal macrophages and splenocytes were isolated from BALB/c mice.\nIn order to obtain splenocytes, complete RPMI media was put into a cell culture dish, male mouse spleen was isolated, and tissue thereof was crushed and centrifuged. Pellet was washed once with media and centrifuged again, and ACK lysis buffer (0.15 M NH4Cl, […], 0.01 M Na2EDTA, pH 7.2-7.4) was added thereto and centrifuged again. Then the pellet was cultured in 5% FBS-containing complete RPMI media for primary culture of the splenocytes, and the media was replaced with culture medium containing 5, 10 and 20 μM of the cell-killing CKP fusion peptide (CTD7:CKP), and after 15 min, cell necrosis inducing activity was confirmed by XTT method."}, "[7]": {"system": "liver tissue", "experiment": "Toxicity in normal tissue (liver), histology", "assay_type": "in vivo, mouse", "settings": "intravenous injection, liver sections by the time", "description": "In order to evaluate the degree of toxicity to the liver tissue, liver tissue section was prepared as described in Example 8, and pathologically observed in a normal mice group not treated with the peptide, a tumor-formed group intravenously injected with 0.85% normal saline and groups intravenously injected with the cell-killing CKP fusion peptide by the time."}},
  "note": "Where no end group is shown, it is not given here.",
  "data": [
    {"sequence": "CGKRKGGKLLNLISKLF [CTD2:CKP, CGKRKGGKLLNLISKLF]", "values": [
      {"measurement": "Movement Activities", "setting": "[1]", "result": "Normal"}
    ]},
    {"sequence": "CGRDKGPDCKLLNLISKLF (Cell killing fusion peptide) [CTD12:CKP]", "values": [
      {"measurement": "Movement Activities", "setting": "[1]", "result": "Normal"}
    ]},
    {"sequence": "CNGRCGGKLLNLISKLF (Cell killing fusion peptide) [CTD1:CKP]", "values": [
      {"measurement": "In vivo Screening", "setting": "[2]", "result": "NR"},
      {"measurement": "Movement Activities", "setting": "[1]", "result": "Slow"}
    ]},
    {"sequence": "CRGDKGGKLLNLISKLF [CTD18:CKP, CRGDKGGKLLNLISKLF]", "values": [
      {"measurement": "Movement Activities", "setting": "[1]", "result": "Slow"}
    ]},
    {"sequence": "CRGDKGPDCKLLNLISKLF (Cell killing fusion peptide) [CTD15:CKP]", "values": [
      {"measurement": "Movement Activities", "setting": "[1]", "result": "Normal"}
    ]},
    {"sequence": "KAANLISKLF [CKP6]", "values": [
      {"measurement": "cell-killing activity compared with the CKP peptide", "setting": "[3]", "result": "much decreased cell-killing activity"}
    ]},
    {"sequence": "KALNLIAALF [CKP5]", "values": [
      {"measurement": "cell-killing activity compared with the CKP peptide", "setting": "[3]", "result": "slightly decreased cell-killing activity"}
    ]},
    {"sequence": "KALNLISKLF [CKP2]", "values": [
      {"measurement": "cell-killing activity compared with the CKP peptide", "setting": "[3]", "result": "slightly decreased cell-killing activity"}
    ]},
    {"sequence": "KLAALISKLF [CKP3]", "values": [
      {"measurement": "cell-killing activity compared with the CKP peptide", "setting": "[3]", "result": "slightly decreased cell-killing activity"}
    ]},
    {"sequence": "KLLNAISKLF [CKP7]", "values": [
      {"measurement": "cell-killing activity compared with the CKP peptide", "setting": "[3]", "result": "much decreased cell-killing activity"}
    ]},
    {"sequence": "KLLNLIAALF [CKP4]", "values": [
      {"measurement": "cell-killing activity compared with the CKP peptide", "setting": "[3]", "result": "better cell-killing activity"}
    ]},
    {"sequence": "KLLNLISKAF [CKP8]", "values": [
      {"measurement": "cell-killing activity compared with the CKP peptide", "setting": "[3]", "result": "much decreased cell-killing activity"}
    ]},
    {"sequence": "KLLNLISKLF (Cell Killing Peptide) [MTD]", "values": [
      {"measurement": "cells killed (cell necrosis effect)", "setting": "[4]", "result": "≥ 80", "unit": "%"}
    ]},
    {"sequence": "KLLNLISKLFCGRDKGPDC (Cell killing fusion peptide) [CTD13:CKP]", "values": [
      {"measurement": "Movement Activities", "setting": "[1]", "result": "Normal"}
    ]},
    {"sequence": "KLLNLISKLFCGRDKRLYDC (Cell killing fusion peptide) [CTD14:CKP]", "values": [
      {"measurement": "toxicity to the experimental animals", "setting": "[2]", "result": "dead"},
      {"measurement": "In vivo Screening", "setting": "[2]", "result": "Dead"},
      {"measurement": "Movement Activities", "setting": "[1]", "result": "Dead"}
    ]},
    {"sequence": "KLLNLISKLFCRGDKGPDC (Cell killing fusion peptide) [CTD16:CKP]", "values": [
      {"measurement": "Movement Activities", "setting": "[1]", "result": "Slow"}
    ]},
    {"sequence": "KLLNLISKLFCRGDKRLYDC (Cell killing fusion peptide) [CTD17:CKP]", "values": [
      {"measurement": "toxicity to the experimental animals", "setting": "[2]", "result": "toxicity removing the injected tail by necrosis"},
      {"measurement": "In vivo Screening", "setting": "[2]", "result": "Toxic"},
      {"measurement": "Movement Activities", "setting": "[1]", "result": "Slow"}
    ]},
    {"sequence": "KLLNLISKLFGGCGKRK [CTD3:CKP, KLLNLISKLFGGCGKRK]", "values": [
      {"measurement": "Movement Activities", "setting": "[1]", "result": "Normal"}
    ]},
    {"sequence": "KLLNLISKLFGGCRGDK [CTD19:CKP, KLLNLISKLFGGCRGDK]", "values": [
      {"measurement": "Movement Activities", "setting": "[1]", "result": "Normal"}
    ]},
    {"sequence": "KLLNLISKLFGGLGDRGDR (Cell killing fusion peptide) [CTD10:CKP]", "values": [
      {"measurement": "In vivo Screening", "setting": "[2]", "result": "NR"}
    ]},
    {"sequence": "KLLNLISKLFGGRLLRLLR [CTD6:CKP, KLLNLISKLFGGRLLRLLR]", "values": [
      {"measurement": "toxicity to the experimental animals", "setting": "[2]", "result": "toxicity removing the injected tail by necrosis"},
      {"measurement": "Movement Activities", "setting": "[1]", "result": "Normal"}
    ]},
    {"sequence": "KLLNLISKLFGGRPARPAR [CTD8:CKP, KLLNLISKLFGGRPARPAR]", "values": [
      {"measurement": "Movement Activities", "setting": "[1]", "result": "Slow"}
    ]},
    {"sequence": "RLLRLLRGGKLLNLISKLF [CTD5:CKP, RLLRLLRGGKLLNLISKLF]", "values": [
      {"measurement": "toxicity to the experimental animals", "setting": "[2]", "result": "toxicity removing the injected tail by necrosis"},
      {"measurement": "Movement Activities", "setting": "[1]", "result": "Slow"}
    ]},
    {"sequence": "RPARPARGGKLLNLISKLF [CTD7:CKP, RPARPARGGKLLNLISKLF]", "values": [
      {"measurement": "toxicity to the experimental animals", "setting": "[2]", "result": "no toxicity"},
      {"measurement": "ALT released to blood (liver damage index)", "setting": "[5]", "result": "no difference"},
      {"measurement": "AST released to blood (liver damage index)", "setting": "[5]", "result": "no difference"},
      {"measurement": "cell-killing activity in normal cells", "setting": "[6]", "result": "did not show significant cell-killing activity"},
      {"measurement": "damage of liver tissue (histology)", "setting": "[7]", "result": "any significant damage was not observed"},
      {"measurement": "Movement Activities", "setting": "[1]", "result": "Normal"}
    ]},
    {"sequence": "WDLAWMFRLPVGKLLNLISKLF [CTD11:CKP]", "values": [
      {"measurement": "Movement Activities", "setting": "[1]", "result": "Normal"}
    ]},
    {"sequence": "WIFPWIQLKLLNLISKLF [CTD4:CKP, WIFPWIQLKLLNLISKLF]", "values": [
      {"measurement": "toxicity to the experimental animals", "setting": "[2]", "result": "toxicity removing the injected tail by necrosis"},
      {"measurement": "Movement Activities", "setting": "[1]", "result": "Slow"}
    ]}
  ]
}
